In brackets after ≈: the same amount, converted by molar mass.

Broadly, the kinetic solubility is solubility judged after dilution from a stock solution rather than from solid.

For this data set the following is noted: buffer; pH 7.4; 200.0 µM.
In the case of `CC(c1ccccc1)n1cnc2ccccc2c1=O` (configuration not stated), the solubility (kinetic) is over 37.5 µg/mL.

The molecule `O/N=C\c1cccn1-c1nccs1` displayed a solubility (kinetic) of over 29 µg/mL. With `COc1cc([N+](=O)[O-])ccc1NC(=O)NCc1ccccn1` the figure was over 45.3 µg/mL; with `O=C(COC(=O)CC1CC2CCC1C2)NCc1ccc(F)cc1` (configuration not stated), 46.1 µg/mL (≈ 144 µM).

With `O=C(NC(=O)c1ccc(F)cc1F)Nc1ccc(Cl)cc1`, the kinetic solubility came out at 2.8 µg/mL (≈ 9.01 µM). In the case of `S=C1Cc2ccccc2C(c2ccc(Cl)cc2)N1` (configuration not stated) it was 4.9 µg/mL (≈ 17.9 µM); in that of `OCc1nc2ccccc2n1Cc1c(F)cccc1Cl`, 14.4 µg/mL (≈ 49.5 µM); in that of `Cc1nc(-c2ccccc2)sc1C(=O)NN`, over 35 µg/mL. In the case of `O=C(O)CCCCCNCc1c(Cl)cccc1Cl` it was 41.6 µg/mL (≈ 143 µM); in that of `CNc1nc2c(Cl)cc(Cl)cc2s1`, under 0.2 µg/mL; in that of `Cc1noc(C)c1C(=O)NC1=NCCS1`, over 33.8 µg/mL. In the case of `Cc1ccc(NC(=O)Cn2nc(C)c(S(=O)(=O)N(C)C)c2C)cc1` it was over 52.6 µg/mL; in that of `CC(=O)Nc1ccc(C(=O)/C=C/c2ccc[nH]2)cc1`, 2.9 µg/mL (≈ 11.4 µM); in that of `Cc1occc1C(=O)N1CCCC(Nc2ccc(F)c(F)c2)C1` (configuration not stated), 46.6 µg/mL (≈ 145 µM). In turn, `Cc1nnc(NC(=O)C(C)Sc2nnc(-c3ccco3)n2C)s1` (configuration not stated) displayed a solubility (kinetic) of over 52.6 µg/mL.

The molecule `CCSc1nc2sccc2c(=O)n1-c1ccccc1` had a kinetic solubility of 27.3 µg/mL (≈ 94.7 µM). With `NC(=O)c1ccccc1` the figure was over 18.2 µg/mL; with `O=C1[C@@H]2CSCN2C(=O)CN1Cc1c(F)cccc1Cl`, over 47.2 µg/mL; with `O=C(O)CCCC(=O)Nc1ccc(Oc2ncnc3cc(Cl)ccc23)nc1`, over 58 µg/mL. In the case of `Cc1cccc(NC(=O)c2cc3cc([N+](=O)[O-])ccc3s2)n1` it was under 0.2 µg/mL; in that of `NS(=O)(=O)c1ccc(NC(=O)c2cc(Cl)sc2Cl)cc1`, 15.4 µg/mL (≈ 43.8 µM).

Molecule `O=C(NC(=S)Nc1ccccc1Cl)C1CC1` returned a solubility (kinetic) of over 38.2 µg/mL. In the case of `S=C(Nc1ccc(Br)cc1)Nc1ccc2c(c1)OCCO2` it was 1.5 µg/mL (≈ 4.11 µM); in that of `CSc1ncccc1C(=O)OCC(=O)C(C)(C)C`, 39.6 µg/mL (≈ 148 µM). With `CC(=O)c1ccc(N2CCN(C(=O)c3ccc4[nH]c(C)c(C)c4c3)CC2)cc1` the figure was 1.6 µg/mL (≈ 4.26 µM). In the case of `O=C(CSc1nnc(-c2ccccc2)o1)NC1CC1` it was over 41.3 µg/mL; in that of `Cc1ccc(CNC(=O)CCSCc2cccc(F)c2)cc1`, 5.2 µg/mL (≈ 16.4 µM).

On to `O=C(O)/C=C/C(=O)NCc1csc2ccccc12`, for which the solubility (kinetic) came out at 5.2 µg/mL (≈ 19.9 µM). With `C=C1c2cc(C)c(C)cc2NC(=O)N1c1ccccc1` the figure was 24.4 µg/mL (≈ 92.3 µM); with `O=C(C(=O)N1CCCCC1)c1c(-c2ccccc2)[nH]c2ccccc12`, over 49.9 µg/mL. In the case of `Cc1ccccc1OCCC(=O)Nc1ccc2c(C)cc(=O)oc2c1` it was 4.2 µg/mL (≈ 12.4 µM); in that of `CC(=O)c1c(C)[nH]c(C(=O)Nc2ccc(C)cc2Br)c1C`, 0.8 µg/mL (≈ 2.29 µM). `CC(C)[C@H](NC(=O)c1ccccc1F)C(=O)Nc1ccc(F)c(F)c1` displayed a kinetic solubility of 4.9 µg/mL (≈ 14 µM). In the case of `Cc1cccc(C2NC(c3cccc(C)c3)C(C)C(=O)C2C)c1` (configuration not stated) it was 0.8 µg/mL (≈ 2.6 µM); in that of `COC(=O)C1Cc2ccccc2CN1S(=O)(=O)c1ccc(C)cc1` (configuration not stated), 19.6 µg/mL (≈ 56.7 µM); in that of `CN1C[C@H](C(=O)N[C@]2(C)O[C@@]3(O)[C@@H]4CCCN4C(=O)[C@H](Cc4ccccc4)N3C2=O)CC2c3cccc4[nH]cc(c34)C[C@H]21.CS(=O)(=O)O` (some centres not stated), 62.9 µg/mL. In the case of `CCc1noc(C)c1C(=O)Nc1ccc(C(F)(F)F)cc1` it was 7.5 µg/mL (≈ 25.1 µM). In the case of `CC(C)n1cc(/C(N)=N/O)c(=O)n(Cc2ccccc2)c1=O` it was over 45.3 µg/mL; in that of `Cc1[nH]nc(SCC(=O)N2CCOCC2)c1[N+](=O)[O-]`, over 42.9 µg/mL. `O=C(CCN1CCN(CCO)CC1)Nc1ccc(Br)cc1` displayed a solubility (kinetic) of over 53.4 µg/mL.

Molecule `Cc1nccn1CCOc1ccc(Cl)cc1.O=C(O)C(=O)O` had a kinetic solubility of 45 µg/mL.

For `CN1CCN(c2ccc(NC(=O)c3ccccc3)cc2)CC1`, the kinetic solubility is over 44.3 µg/mL. In the case of `CC(=O)N/C(=C\c1ccccc1)C(=O)NC(C)C(=O)O` (configuration not stated) it was over 41.4 µg/mL; in that of `COc1ccc(C(=O)Nc2cc3c4c(c2)C(C)C(=O)N4CCC3)cc1` (configuration not stated), 38.6 µg/mL (≈ 115 µM); in that of `COC(=O)C1CN(C(=O)COc2cc(C)cc(C)c2)c2ccccc2O1` (configuration not stated), 3.7 µg/mL (≈ 10.4 µM). Take `Clc1cccc(C2CCN(Cc3nc(CC4CC4)no3)C2)c1` (configuration not stated): the kinetic solubility worked out at 12.3 µg/mL (≈ 38.7 µM). With `Cc1ccc(C)c(NS(=O)(=O)c2ccc3[nH]c(=O)[nH]c3c2)c1` the figure was 4.8 µg/mL (≈ 15.1 µM); with `CCC(=O)c1c[nH]c(C(=O)NCc2cccnc2)c1`, over 38.6 µg/mL; with `Oc1ccccc1C=NCCCCCCN=Cc1ccccc1O`, 47.4 µg/mL (≈ 146 µM). In the case of `COc1cccc(NC(=S)Nc2cc(C)cc(C)n2)c1` it was 0.3 µg/mL (≈ 1.04 µM); in that of `O=C(CN1CCCCCC1)Nc1ccc(Cl)cc1F`, 28.1 µg/mL (≈ 98.7 µM).

Molecule `O=C(CNC(=O)c1ccc(Br)o1)NCC1COc2ccccc2O1` (configuration not stated) displayed a solubility (kinetic) of over 59.3 µg/mL.

The record behind these values is PubChem BioAssay AID1996.
